Results as given in US20230115176A1 (Ra Pharmaceuticals, Inc., priority 2019, published 2023).
Where two headings read alike, the source gives them in different places.

How the values were obtained:
Human C5 [1] = target: T1, Human C5 (Homo sapiens, UniProt P01031); assay: Surface plasmon resonance (SPR), immobilized human C5 (Example 9, Table 18); type: binding
T1 construct: purchased Complement Technology
Text: Morrison and Boyd in “Organic Chemistry”, 6th edition, Prentice Hall (1992)] and validated for proper structure by mass spectrometry.

purified human C5 = purified human C5 (Homo sapiens, UniProt P01031); assay: Red blood cell (RBC) hemolysis assay, optical, absorbance 412 nm (Example 10, Table 19); type: cell-based; conditions: antibody-sensitized sheep erythrocytes, […] human C5 depleted sera
purified human C5, sequence (P01031 19-1676): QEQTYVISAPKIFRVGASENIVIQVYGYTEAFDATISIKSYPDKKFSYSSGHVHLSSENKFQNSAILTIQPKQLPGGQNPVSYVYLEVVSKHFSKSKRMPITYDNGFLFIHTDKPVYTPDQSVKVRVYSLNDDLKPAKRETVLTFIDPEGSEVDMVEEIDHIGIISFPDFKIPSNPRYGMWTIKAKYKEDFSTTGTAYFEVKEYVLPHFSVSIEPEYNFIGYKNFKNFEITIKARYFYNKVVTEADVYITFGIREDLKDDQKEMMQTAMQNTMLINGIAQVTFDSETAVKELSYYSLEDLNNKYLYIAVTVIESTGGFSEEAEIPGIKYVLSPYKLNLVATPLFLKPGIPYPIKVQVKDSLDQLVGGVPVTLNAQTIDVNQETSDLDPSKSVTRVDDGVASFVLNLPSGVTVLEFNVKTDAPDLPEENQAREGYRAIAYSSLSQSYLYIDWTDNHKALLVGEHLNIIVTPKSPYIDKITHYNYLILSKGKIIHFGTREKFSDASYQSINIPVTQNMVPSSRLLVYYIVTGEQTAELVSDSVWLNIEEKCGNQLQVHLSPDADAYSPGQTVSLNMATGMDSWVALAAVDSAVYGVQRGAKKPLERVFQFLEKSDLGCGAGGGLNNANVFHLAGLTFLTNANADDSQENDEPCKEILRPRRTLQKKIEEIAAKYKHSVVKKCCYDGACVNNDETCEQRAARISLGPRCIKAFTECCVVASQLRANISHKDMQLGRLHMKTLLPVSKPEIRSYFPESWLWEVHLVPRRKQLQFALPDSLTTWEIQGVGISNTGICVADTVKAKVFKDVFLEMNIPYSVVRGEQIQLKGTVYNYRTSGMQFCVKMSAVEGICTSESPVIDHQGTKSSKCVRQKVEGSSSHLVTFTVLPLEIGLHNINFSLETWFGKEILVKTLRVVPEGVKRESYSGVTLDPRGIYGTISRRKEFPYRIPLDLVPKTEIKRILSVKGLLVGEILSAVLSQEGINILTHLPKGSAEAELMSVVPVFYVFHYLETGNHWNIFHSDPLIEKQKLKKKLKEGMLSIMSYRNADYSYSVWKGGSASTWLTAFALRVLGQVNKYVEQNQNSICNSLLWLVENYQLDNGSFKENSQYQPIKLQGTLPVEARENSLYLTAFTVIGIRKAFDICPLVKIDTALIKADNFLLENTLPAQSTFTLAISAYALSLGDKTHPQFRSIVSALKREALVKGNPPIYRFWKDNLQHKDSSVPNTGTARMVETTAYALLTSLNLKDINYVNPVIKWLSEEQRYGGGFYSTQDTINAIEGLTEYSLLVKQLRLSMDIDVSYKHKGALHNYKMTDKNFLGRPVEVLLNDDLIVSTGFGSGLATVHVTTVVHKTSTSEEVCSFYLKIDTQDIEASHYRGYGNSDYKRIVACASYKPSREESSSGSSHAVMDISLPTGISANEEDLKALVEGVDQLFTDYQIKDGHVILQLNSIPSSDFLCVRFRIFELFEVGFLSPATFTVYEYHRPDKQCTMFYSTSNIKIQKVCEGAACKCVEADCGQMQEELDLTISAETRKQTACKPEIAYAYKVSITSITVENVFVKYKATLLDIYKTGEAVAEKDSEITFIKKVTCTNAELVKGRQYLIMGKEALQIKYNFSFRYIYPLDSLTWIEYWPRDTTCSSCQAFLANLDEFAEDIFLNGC

Human C5 [2] = target: T1, Human C5; assay: Surface plasmon resonance (SPR), compounds on immobilized human C5 (Example 2, Table 5); type: binding; conditions: lowest value where a range of compound concentrations were analyzed
Description: Surface plasmon resonance (SPR) technology was used to evaluate affinity, specificity, and kinetics of interactions between compounds and complement protein C5 in real time without the need for labeling.
SensiQ FE SPR system (SensiQ Technologies, Oklahoma City, Okla.) was used to provide sensitive and accurate detection of binding of small molecules to the very large C5 protein (MW=195,000 Da). The chip was prepared by preconditioning the sensor according to the protocol of the SensiQ FE using 10 mM HCl, 50 mM NAOH and 0.1% SDS. The sensor chip was activated by using a mixture of fresh EDAC (1-ethyl-3-(-3-dimethylaminopropyl) carbodiimide) (Sigma Co., St. Louis, Mo.) and NHS (N-hydroxy succinimide) (Sigma Co., St. Louis, Mo.). Human C5 was surface immobilized to a Pioneer Biosensor chip via random amine coupling (>12,000 RU) which makes use of the N-terminus and ε-amino groups of lysine residues of the protein ligand. Immobilization was done by injecting 30-40 μg/ml C5 in 10 mM NaAc pH 4.5 onto designated channels at a rate of 10 μL/minute for 12 minutes, targeting RL>12000 RU for small molecules.
Compounds were diluted in DMSO in a format of 100-fold final concentration and 3-fold serial dilution (5 or 6 dilutions). The 100-fold compounds were transferred to one-fold DMSO-free assay buffer in the 96-well test plate. The compound solution was injected at a rate of 60 μL/minute for 30-60 seconds, followed by 60-90 seconds dissociation time, buffer flushing and/or priming. Blank solution (1% DMSO assay buffer) was run for every 6 injections of compounds. Double reference by subtracting both blank channel and reference channel was applied for data processing. Titration of C5 binding compounds to the C5-immobilized biosensor chip surface led to interactions between C5 and potential binders, and the resulting changes of surface refractive index were sensitively measured by the system.
SPR data were analyzed with the managing software provided by SensiQ and equilibrium dissociation constant (KD) values were determined for each compound. Where a range of compound concentrations were analyzed, the lowest value obtained is presented.

[3] = immobilized human C5, equilibrium dissociation constant, read-out: SPR C5 EQ KD
[4] = 0.5 nM human C5, read-out: IC50
[5] = 0.5 nM purified human C5, absorbance 412 nm, read-out: RBC Hemolysis IC50
[6] = SPR, human C5 immobilized, read-out: equilibrium dissociation constant for interaction with C5

T1 sequence (P01031 19-1676): as above

| SMILES | Kd (Human C5 [1]; [3]) [nM] | Kd (Human C5 [1]; [6]) [nM] | Kd (Human C5 [2]) [nM] | IC50 (purified human C5; [4]) [nM] | IC50 (purified human C5; [5]) [nM] |
| --- | --- | --- | --- | --- | --- |
| COc1ccc(NC(=O)NCc2cccc(O)c2O)cc1OCCCC(C)C [Compound C5INH-0476] | 40 |  |  | < 20 | 8.5 |
| COc1ccc(NC(=O)NC(CO)c2ccccc2)cc1COCCC(C)C (centres unmarked) [Compound C5INH-0477] | 1130 |  |  |  | 1460 |
| COc1ccc(F)cc1CNC(=O)Nc1ccc(OC)c(OCCCC(C)C)c1 [Compound C5INH-0484] | 770 |  |  |  | 150 |
| COc1ccc(CNC(=O)Nc2ccc(OC)c(OCCCC(C)C)c2)c(O)c1 [Compound C5INH-0485] | 330 |  |  |  | 46.9 |
| COc1ccc(NC(=O)NC(CO)c2cccc(OC)c2O)cc1OCCCC(C)C (centres unmarked) [Compound C5INH-0486] | 25 |  |  | 3 |  |
| COc1ccc(NC(=O)NC(CO)c2cc(N)ccc2OC)cc1OCCCC(C)C (centres unmarked) [Compound C5INH-0488] | 100 |  |  | < 20 | 12 |
| COc1ccc(NC(=O)NC(CO)c2cc(NC(C)=O)ccc2OC)cc1OCCCC(C)C (centres unmarked) [Compound C5INH-0489] | 364 |  |  |  | 177 |
| COc1ccc(NC(=O)NCc2ccnc3c2ccn3CCCN2CCCC2)cc1OCCCC(C)C [Compound C5INH-0490] | 278 |  |  |  | 144 |
| COc1ccc(NC(=O)NCc2ccnc3c2ccn3CCCN(C)C)cc1OCCCC(C)C [Compound C5INH-0491] | 62 |  |  |  | 83.5 |
| COc1ccc(NC(=O)N(C)Cc2cccc3ccn(C)c23)cc1OCCCC(C)C [Compound C5INH-0492] | 2070 |  |  |  | 2650 |
| COc1ccc(NC(=O)NCc2cccc(NC(C)=O)c2)cc1OCCCC(C)C [Compound C5INH-0496] | 600 |  |  |  | 400 |
| CNc1cccc(CNC(=O)Nc2ccc(OC)c(OCCCC(C)C)c2)c1 [Compound C5INH-0497] | 1400 |  |  |  | 913 |
| COc1ccc(CNC(=O)Nc2ccc(OC)c(OCCCC(C)C)c2)cn1 [Compound C5INH-0498] | 1480 |  |  |  | 4640 |
| COc1ccc(NC(=O)NCc2cccc3c2ncn3S(=O)(=O)c2ncc[nH]2)cc1OCCCC(C)C [Compound C5INH-0500] | 334 |  |  |  | 556 |
| COc1ccc(NC(=O)NC(C(=O)O)c2cccc(OC)c2O)cc1OCCCC(C)C (centres unmarked) [Compound C5INH-0501] | 330 |  |  |  | 468 |
| COCc1cccc(CNC(=O)Nc2ccc(OC)c(OCCCC(C)C)c2)c1 [Compound C5INH-0502] | 1910 |  |  |  | 3090 |
| COc1cc(CNC(C)=O)c(NC(=O)NCc2ccnc3[nH]ccc23)cc1OCCCC(C)C [Compound C5INH-0504] | 316 |  |  |  | 318 |

| SMILES | Kd (Human C5 [1]; [3]) [nM] | Kd (Human C5 [1]; [6]) [nM] | Kd (Human C5 [2]) [nM] | IC50 (purified human C5; [4]) [nM] | IC50 (purified human C5; [5]) [nM] |
| --- | --- | --- | --- | --- | --- |
| COc1ccc(NC(=O)NCc2cccc3c2ccn3CC(=O)N(C)C)cc1OCCCC(C)C [Compound C5INH-0516] | 16 | < 20 |  |  | 127 |
| COc1ccc(NC(=O)NCc2cc(F)cc3[nH]ccc23)cc1OCCCC(C)C [Compound C5INH-0517] | 10.7 | < 20 |  |  | 369 |
| COc1ccc(NC(=O)NCc2cccc3c2ccn3Cc2ccncc2)cc1OCCCC(C)C [Compound C5INH-0518] | 14 | < 20 |  |  | 300 |
| COc1ccc(NC(=O)NCc2cccc3c2ccn3CC2CCCN2C)cc1OCCCC(C)C (centres unmarked) [Compound C5INH-0519] | 9.3 | < 20 |  |  | 96.7 |
| COc1ccc(NC(=O)NCc2cccc3c2ccn3CCCN(C)C)cc1OCCCC(C)C [Compound C5INH-0524] | 27 |  |  |  | 65 |
| COc1ccc(NC(=O)NCc2ccnc3c2ccn3CC(=O)N2CCN(C)CC2)cc1OCCCC(C)C [Compound C5INH-0526] | 27 |  |  |  | 31.5 |
| COc1cc(CN(C)C(C)=O)c(NC(=O)NCc2ccnc3[nH]ccc23)cc1OCCCC(C)C [Compound C5INH-0527] | 650 |  |  |  | 2270 |
| COc1ccc(NCCCN2CCOCC2)cc1CNC(=O)Nc1ccc(OC)c(OCCCC(C)C)c1 [Compound C5INH-0534] | 260 |  |  |  | 1110 |
| COc1ccc(NCCCN(C)C)cc1CNC(=O)Nc1ccc(OC)c(OCCCC(C)C)c1 [Compound C5INH-0535] | 260 |  |  |  | 1040 |
| COc1ccc(NC(=O)NCc2cccc3c2ncn3CCN(C)C)cc1OCCCC(C)C [Compound C5INH-0536] | 32 |  |  |  | 175 |
| COc1ccc(NC(=O)NCc2cccc3[nH]ccc23)cc1OCCCC(C)C [Compound C5INH-0537] | 81 |  |  |  | 138 |
| COc1ccc(NC(=O)NCc2ccnc3c2ccn3CC(=O)N(C)C)cc1OCCCC(C)C [Compound C5INH-0538] | 79 |  |  |  | 62.1 |
| COc1cc(CCCCN(C)C)c(NC(=O)N[C@@H](CO)c2ccccc2OC)cc1OCCCC(C)C [Compound C5INH-0539] | 430 |  |  |  | 617 |
| COc1ccc(NC(=O)NCc2ccnc3c2ccn3CCCN)cc1OCCCC(C)C [Compound C5INH-0544] | 210 |  |  |  | 130 |
| COc1ccc(NC(=O)NCc2ccnc3c2ccn3CC2CCCN2C)cc1OCCCC(C)C (centres unmarked) [Compound C5INH-0545] | 31 |  |  |  | 89.5 |
| COc1cc(CNC(C)=O)c(NC(=O)NCc2ccnc3c2ccn3CCCN(C)C)cc1OCCCC(C)C [Compound C5INH-0547] | 42 |  |  |  | 287 |

Second part, led by results:

| Kd (Human C5 [1]; [3]) [nM] | Kd (Human C5 [1]; [6]) [nM] | Kd (Human C5 [2]) [nM] | SMILES | IC50 (purified human C5; [4]) [nM] | IC50 (purified human C5; [5]) [nM] |
| --- | --- | --- | --- | --- | --- |
|  |  | 3100 | COc1ccc(NC(=O)NCc2ccc(Br)cc2)cc1OCCCC(C)C [SM0089] |  |  |
|  |  | 2100 | COc1ccc(NC(=O)NCc2cncnc2)cc1OCCCC(C)C [SM0090] |  |  |
|  |  | 990 | COc1ccc(NC(=O)N[C@@H](CO)C(C)(C)C)cc1OCCCC(C)C [SM0091] |  |  |
|  |  | 540 | COc1ccc(NC(=O)NC(CO)Cc2ccccc2)cc1OCCCC(C)C (centres unmarked) [SM0092] |  |  |
|  |  | 240 | CNC(=O)[C@H](NC(=O)Nc1ccc(OC)c(OCCCC(C)C)c1)c1ccccc1 [SM0093] |  |  |
|  |  | 380 | COc1ccc(NC(=O)N[C@@H](CO)c2ccccc2)cc1OCCN1CCC(O)CC1 [SM0094] |  |  |
|  |  | 1600 | COc1ccc(NC(=O)N[C@@H](CO)c2ccccc2)cc1OCc1ccccn1 [SM0095] |  |  |
|  |  | 2100 | CCCCn1ncc2ccc(NC(=O)N[C@@H](CO)c3ccccc3)cc21 [SM0096, 1-(1-butylindazol-6-yl)-3-[(1R)-2-hydroxy-1-phenyl-ethyl]urea] |  |  |
|  |  | 2200 | COc1ccc(NC(=O)NC2CCCCC2O)cc1OCCCC(C)C (centres unmarked) [SM0097] |  |  |
|  |  | 3800 | COc1ccc(NC(=O)N[C@@H](CO)c2ccccc2)cc1OCc1ccncc1 [SM0098] |  |  |
|  |  | 5700 | O=C(Nc1ccc2c(c1)OC(F)(F)O2)N[C@@H](CO)c1ccccc1 [SM0099] |  |  |
|  |  | 120 | COc1ccc(NC(=O)NCc2ccccc2CN(C)C)cc1OCCCC(C)C [SM0100] |  |  |
|  |  | 150 | COc1ccc(NC(=O)N[C@@H](CO)c2ccccc2)cc1OCCC1CC1 [SM0101] |  |  |
|  |  | 1700 | COc1ccc(NC(=O)N[C@@H](C(N)=O)c2ccccc2)cc1OCCCC(C)C [SM0102] |  |  |
|  |  | 1800 | COc1ccc(NC(=O)N[C@H]2c3ccccc3C[C@@H]2O)cc1OCCCC(C)C [SM0103] |  |  |
|  |  | 2600 | COc1ccc(NC(=O)N[C@@H](CO)c2ccccc2)cc1OCCN(C)C [SM0105, 1-[3-[2-(dimethylamino)ethoxy]-4-methoxy-phenyl]-3-[(1R)-2-hydroxy-1-phenyl-ethyl]urea] |  |  |
|  |  | 2700 | COc1ccc(NC(=O)NC(c2ccccc2F)[C@@H](O)CO)cc1OCCCC(C)C (some centres unmarked) [SM0106] |  |  |
